Assay results: US10292949B2, “Pharmaceutical composition comprising rimeporide for treating diseases associated with insulin resistance and β-cell dysfunction” (Merck Patent GmbH, priority 2008, dated 2019)

Tests used:
Format in all cases: in vivo, rat
[1] = Pharmacological Study Report I: body weight of ZF (fa/fa) rats during 4 weeks of treatment; settings: age 8-12 weeks, Compound A 150 mg/kg gavage twice daily, Compound B 40 mg/kg/day in chow
Experimental: (§1) Obese, insulin resistant ZF (fa/fa) rats, which are treated from the age of 8-12 weeks, were used as IR model. Rats were housed with a 12-h light/dark cycle and free access to food and water unless otherwise noted. Studies were approved by the Institutional Animal Care and Use Committee. There were a total of 18 animals in the study (8 week-old males, provided by Charles River). Animals were randomized into 3 groups (vehicle group, Compound A group, Compound B group, n=6 per group) based on random glucose level at the beginning of the study: • Group 1: ZF rats (fa/fa) (n=6), compound A (150 mg/kg via gavage) • Group 2: ZF rats (fa/fa) (n=6), compound B (40 mg/kg/day as admixture to the chow) • Group 3: ZF rats (fa/fa) (n=6), vehicle treatment (control chow, vehicle gavage)
(§2) Group 1 and 3 animals were treated with compound A or vehicle (water) for 4 weeks (from age 8-12 weeks) via oral gavage, twice daily. Chow containing compound B was fed to Group 2 ad lib. Group 1 and Group 3 were fed with chow without compound B ad lib.

[2] = system: Obese, insulin resistant ZF (fa/fa) rats; experiment: Pharmacological Study Report I: random and fasting blood glucose and plasma insulin levels; settings: Compound A 150 mg/kg gavage twice daily, Compound B 40 mg/kg/day in chow
Experimental: as §1, §2
Random morning blood was withdrawn from ad libitium fed rats by a small cut in the tip of the tail. Blood was collected in heparinized tubes. Blood glucose concentrations were measured as per study design using a One-Touch glucometer (Lifescan Inc, Milptias, Calif.). Blood samples were placed on ice and centrifuged, and plasma stored at −20° C. until insulin was assayed. Rat plasma insulin concentration was measured with rat-specific ELISA kit (Crystal Chem Inc, Downers Grove, Ill.).
Random morning blood glucose levels were measured weekly between 9-11 a.m.
At the end of the study, rats were fasted for 4 hours and glucose and insulin level were measured.

[3] = system: Obese, insulin resistant ZF (fa/fa) rats; experiment: Pharmacological Study Report I: deuterated glucose disposal test (2H-GDT); settings: 4 weeks, Compound A 150 mg/kg gavage twice daily
Experimental: as §1, §2
Rats underwent a 4 hour fast. […] At t=0, the blood glucose concentrations were determined with a glucometer, and a blood sample was obtained for determination of base line insulin and H2O^18 dilution. […]
One hundred micro liter aliquots of plasma samples inside the cape of an inverted vial were placed in a heating blocked filled with glass beads at 70° C. overnight and the water distillate inside the vial was collected. The deuterium and oxygen-18 isotope ratios of the blood of plasma samples were determined using a Thermo Finnigan High Temperature Conversion/Elemental Analyzer coupled with a Thermo Finnigan MAT 253 IRMS via a Conflo-III Interface. […] The deuterium isotope abundance is first calculated in δ 2H values relative to the international VSMOW standard, and then transformed to APE by using a calibration curve of standards with known enrichments. The ^2H2O enrichment was calculated for rats at 30 min after the glucose load. ^2H2O enrichment was converted to mmoles by multiplying enrichment by the TBW pool size and dividing by 20 (MW ^2H2O). […]

[4] = Pharmacological Study Report II: body weight and food intake; settings: for Average food consumption, Week 1 / Average food consumption, Week 2 / Average food consumption, Week 3 / Average food consumption, Week 4: fa/fa rats, average +/- SD
Experimental: Thirty-six obese Zucker fa/fa and six lean Zucker fa/? male rats obtained from Charles River, were housed under normal vivarium conditions on a 12 hour light/dark cycle. The rats were kept two to a cage with food and water available ad lib, except during the weekly, 4 hour fasts. Water continued to be available during these fasts.
Compound A corresponds to Cariporide. Compound B corresponds to 2-Methyl-4,5-di-(methylsulfonyl)-benzoyl-guanidine hydrochloride hydrate. Compounds A and B were supplied in powder form by Merck Serono. Drugs were incorporated into a pelleted diet (LabDiet, 5001) by Research Diets, Inc (New Brunswick, N.J.) at concentrations of 0.44 g/kg or 0.88 g/kg of diet to yield approximate doses of 40 or 80 mg/kg. The concentration was calculated based on the assumption that a 300 g rat would eat about 30 g/d of chow. The same chow, but without drug, was fed to rats of both the lean and fa/fa control group animals.
One week prior to the start of the study, all rats were weighed. After a 4 hour fast, a blood sample was obtained for the determination of blood glucose, insulin, and glycosylated hemoglobin levels (HbA1c). Animals were then sorted on the basis of these parameters into the groups listed below. Rats were eight weeks of age at the onset of treatment.
• 1. ZF rats (fa/fa) (n=6) chow without drug • 2. ZF rats (fa/fa) (n=6) compound A (40 mg/kg/day) • 3. ZF rats (fa/fa) (n=6) compound A (80 mg/kg/day) • 4. ZF rats (fa/fa) (n=6) compound B (40 mg/kg/day) • 5. ZF rats (fa/fa) (n=6) compound B (80 mg/kg/day) • 6. lean Zucker rats (fa/?) (n=6) chow without drug Dosing Regime
Treatment appropriate chow was continuously available for 4 weeks except during scheduled 4 h fasts conducted once per week.
individual body weights were determined once per week. Average food intake per cage was also determined once per week and the individual rat consumption was calculated by dividing the cage average by 2 (rats housed 2/cage).

SMILES: CC(C)c1ccc(C(=O)NC(=N)N)cc1S(C)(=O)=O [Compound A, Cariporide]
- Body weight, difference among vehicle- and compound-treated groups [1]: no significant differences
- Random morning blood glucose level vs vehicle group ([2]; 4 weeks): trended towards lower glucose level
- Fasting glucose levels, post vs pre treatment ([2]; 4 h fast, after 4 weeks): trended towards lower values post treatment
- Fasting insulin levels compared to pre-treatment levels ([2]; 4 h fast, after 4 weeks): significantly lower
- Insulin sensitivity (% 2H2O recovery per insulin AUC), post-treatment compared to pre-treatment [3]: no significant change
- Pancreatic compensation (% 2H2O recovery), before vs after treatment within group ([3]; Compound B 40 mg/kg/day in chow, 90 minute % D2O recovery): exhibited lower pancreatic compensation post-treatment
- Average weekly food intake vs chow fed fa/fa controls ([4]; Zucker fa/fa rats, 4 weeks, 40 or 80 mg/kg in chow): did not differ significantly
- Average food consumption, Week 1 ([4]; 40 mg/kg in chow): 32.2 +/− 3.5 grams
- Average food consumption, Week 2 ([4]; 40 mg/kg in chow): 33.1 +/− 2.6 grams
- Average food consumption, Week 3 ([4]; 40 mg/kg in chow): 33.9 +/− 2.4 grams
- Average food consumption, Week 4 ([4]; 40 mg/kg in chow): 34.9 +/− 2.7 grams
- Average food consumption, Week 1 ([4]; 80 mg/kg in chow): 34.3 +/− 2.5 grams
- Average food consumption, Week 2 ([4]; 80 mg/kg in chow): 32.8 +/− 4.3 grams
- Average food consumption, Week 3 ([4]; 80 mg/kg in chow): 32.3 +/− 4.5 grams
- Average food consumption, Week 4 ([4]; 80 mg/kg in chow): 30.8 +/− 5.6 grams
